Experimental data from article PMC8710297, “Identification of potent SENP1 inhibitors that inactivate SENP1/JAK2/STAT signaling pathway and overcome platinum drug resistance in ovarian cancer” (Clinical and Translational Medicine, 2021).

Molecular target: T1, SENP1(C603A) (Homo sapiens, UniProt Q9P0U3, C603A)
T1 construct: GST; made in house
T1 sequence (Q9P0U3 1-644 C603A): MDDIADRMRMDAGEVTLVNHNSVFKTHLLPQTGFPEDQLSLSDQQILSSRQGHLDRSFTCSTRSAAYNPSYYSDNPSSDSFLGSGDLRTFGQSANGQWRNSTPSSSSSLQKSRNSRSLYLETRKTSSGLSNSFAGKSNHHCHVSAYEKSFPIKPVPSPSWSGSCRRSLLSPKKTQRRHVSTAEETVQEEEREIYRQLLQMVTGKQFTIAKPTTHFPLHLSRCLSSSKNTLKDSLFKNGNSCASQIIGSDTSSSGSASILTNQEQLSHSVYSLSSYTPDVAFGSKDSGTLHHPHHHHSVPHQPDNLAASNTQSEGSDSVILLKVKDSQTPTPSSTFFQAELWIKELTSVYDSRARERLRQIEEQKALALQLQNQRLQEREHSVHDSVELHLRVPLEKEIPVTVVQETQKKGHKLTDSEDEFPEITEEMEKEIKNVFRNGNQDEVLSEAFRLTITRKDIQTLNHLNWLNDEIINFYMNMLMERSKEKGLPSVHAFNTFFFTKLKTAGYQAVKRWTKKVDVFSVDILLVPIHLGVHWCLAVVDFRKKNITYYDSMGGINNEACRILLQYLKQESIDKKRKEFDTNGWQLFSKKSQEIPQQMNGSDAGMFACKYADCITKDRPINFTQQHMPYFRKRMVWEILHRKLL
Assay: UPLC-MS/MS of UA associated with IPs of SENP1 proteins
Type: binding
Conditions: mass-spec and surface plasmon resonance analyses
Method: FIGURE 2 UA directly interacts with Sentrin‐specific protease 1 (SENP1). (A) Cellular thermal shift assay to examine the interaction of UA with SENP1. IGROV1 CR cells pretreated with MG132 (10 μM, 1 h) were incubated with DMSO or UA for 4 h before being shifted to indicated temperatures. SENP1 stability was analyzed by using Western blot against SENP1 antibody. Right panel, quantification of non‐denatured SENP1 fraction shown in the left panel. (B) Cell‐free thermal shift assay to examine interactions of UA with SENP1. Purified SENP1 proteins were incubated with DMSO or UA for 4 h before being shifted to the indicated temperatures. SENP1 stability was analyzed by using Western blot against SENP1 antibody. Right panel, quantification of non‐denatured SENP1 fraction shown in the left panel. […] Stability of SENP1(C603A) was analyzed by using Western blot against SENP1 antibody. […] Left; Ultra‐high performance liquid‐chromatography‐MS/MS analyses of associated UA in indicated samples, right; quantification of data shown in left (the binding affinity of UA with SENP1‐C603A was normalized as 1). […]
Cell viability was detected using Sulforhodamine B (SRB) assay as described previously (3).
Absorbance at 51 0 nm was detected using a SpectraMax Re a d e r (Molecular Devices) and […]

binding of UA to SENP1(C603A) compared to SENP1: decreased binding affinities
SMILES: C[C@H]1[C@H](C)CC[C@]2(C(=O)O)CC[C@]3(C)C(=CC[C@@H]4[C@@]5(C)CC[C@H](O)C(C)(C)[C@@H]5CC[C@]43C)[C@H]12 [UA, ursolic acid, reference compound]
